Experimental data as given in article PMC7002685, “Inhibition of vascular calcification by inositol phosphates derivatized with ethylene glycol oligomers” (Nature Communications, 2020).
Values joined by “and” are separate entries in the source; they are usually repeats but may differ in a detail not shown here. Identical values can stand only once.

Key:
primary human VSMCs = assay: CPP2-induced VSMC calcification; assay type: cell-based; settings: for VSMC calcium deposition, % of CPP2 control: CPP2 50 µg Ca/mL
Protocol: Macrophage accumulation and inflammation coincide with the initial phase of calcification. To this end, VSMCs and THP-1-derived macrophages were exposed to CPP2-supplemented medium. CPP2 prepared from human serum as described previously[61] (Supplementary Figs. 6 and 7), induced a pronounced VSMC monolayer calcification after 48 h, which was decreased by (OEG2)2-IP4 in a dose-dependent fashion, and the effect became significant at 10 µM (Fig. 3e). […] Both H2O2 (proxy for oxidative stress) and tumor necrosis factor-alpha (TNF-α) (proxy for inflammatory response) levels were assayed in the VSMC culture supernatants subsequent to CPP2 treatment with and without compounds[30]. However, no increase in H2O2 nor TNF-α compared to control could be detected in either assay. For the CPP-induced VSMC calcification assay (Fig. 3e) a roughly 10-fold higher concentration of (OEG2)2-IP4 was necessary to achieve similar activity as in the CaP-induced VSMC calcification assay (Fig. 3b). […] In the CaP assay, low inhibitor concentration may be sufficient to inhibit crystal nucleation, whereas for the CPP assay higher inhibitor concentrations may be needed to achieve sufficient particle stabilization by chemisorption of inhibitor onto CPPs. Similar results have been reported for hydrogen sulfide in the context of VC[62],[64]. […] An increase in the TNFα levels in the cell culture supernatants was not observed for (OEG2)2-IP4 with (Fig. 3h) and without (Supplementary Fig. 10) combined CPP2 treatment.
Primary human VSMCs (C-12533, PromoCell, Heidelberg, Germany) were cultured according to the manufacturer's guidelines in SMC-2 culture medium (C-22062, PromoCell) and used up to passage 7. For calcification experiments cells were seeded onto 24-well plates (TPP) at a density of 20,000 cells/well and left to attach for 48–72 h. Complete medium was M199 medium (31150022, Thermo Fischer Scientific), supplemented with 10% v/v FBS (10270106, Thermo Fisher Scientific, Waltham, MA), 1% v/v penicillin/streptomycin (15140122, Thermo Fisher Scientific), and 4 mM L-glutamine (25030024, Thermo Fisher Scientific)[80]. Calcification of cell monolayers was induced as described previously[81] by treatment with CPP2-supplemented (50 µg Ca/mL) medium with or without test compounds (1, 3, 10, 30, and 100 µM) at a volume of 1 mL/well for 48 h at 37 °C, 5% CO2. In a second assay, calcification was induced similar to previous experiments[56] by cell treatment with or without test compounds (0.01, 0.1, 1, 10, and 100 µM) in complete medium supplemented with calcium (2.7 mM) and phosphate (2.5 mM) (CaP medium) at a volume of 1 mL/well for 5 days, and treatment medium was replaced on alternate days.
Calcium deposition on cell monolayers was assessed qualitatively by staining for calcium with 2% w/v Alizarin Red S aqueous solution (pH 4.2) (05600, Fluka Analytical). Cell monolayers in 24-well plates were washed with PBS (10010015, Thermo Fischer), fixed in 10% v/v NBF in PBS (F8775, Sigma-Aldrich) for 45 min at RT, washed with milli-Q water, incubated for 3 min with 300 µL Alizarin Red S solution, washed with milli-Q, and images were acquired using a Axiovert 35 microscope (Zeiss, Carl Zeiss Microscopy GmbH, Jena, Germany) at ×100 magnification. Calcium quantitation was performed after washing cells with PBS and then decalcifying cell monolayers with 0.1 M HCl overnight at 4 °C. Acidic supernatants were centrifuged (10,000 × g, 4 °C, 10 min) and calcium content was assessed using the calcium colorimetric assay.

[1] = target: T1, Cholecystokinin CCK1 (CCKA) (Homo sapiens, UniProt P32238); assay: Off-target 218030; assay type: binding
T1 construct: purchased Eurofins Panlabs Discovery Services Taiwan, Ltd
Protocol: (§1) The potential off-target activity of 10 µM (OEG2)2-IP4 was assessed against a panel of 87 enzymes, receptors, or ion channels that are used in standard safety pharmacology screens.
(§2) 3.2. Off-target screening assay
(§3) The experiments were conducted by a contract research organization (Eurofins Panlabs Discovery Services Taiwan, Ltd.) and details on the respective assays can be retrieved via the catalog number provided in Supplementary Table 11 from the company’s webpage
(§4) (https://www.eurofinsdiscoveryservices.com/). […]
(§5) At sacrifice the left tibia of animals of the rat model with dietary adenine/high-phosphate-induced uremia and VC was collected, fixed with 70% v/v EtOH and embedded in methyl methacrylate. The trabecular bone compartment is known to be the most metabolic active i.e. actively re-structured bone compartment in CKD. Therefore, histomorphometric and micro-computed tomography (µCT) analysis of bone was performed on the trabecular compartment. Tibial sections were Goldner-stained for histomorphometric analysis of the proximal metaphysis using the AxioVision Release 4.5 software, as […]
(§6) described previously5. […]

Opiate μ (OP3, MOP) = target: T2, Opiate μ (OP3, MOP) (Homo sapiens, UniProt P35372); assay: Off-target 260410; assay type: binding
T2 construct: purchased Eurofins Panlabs Discovery Services Taiwan, Ltd
Protocol: as §1, §2, §3, §4, §5, §6

T2 sequence (P35372 whole entry): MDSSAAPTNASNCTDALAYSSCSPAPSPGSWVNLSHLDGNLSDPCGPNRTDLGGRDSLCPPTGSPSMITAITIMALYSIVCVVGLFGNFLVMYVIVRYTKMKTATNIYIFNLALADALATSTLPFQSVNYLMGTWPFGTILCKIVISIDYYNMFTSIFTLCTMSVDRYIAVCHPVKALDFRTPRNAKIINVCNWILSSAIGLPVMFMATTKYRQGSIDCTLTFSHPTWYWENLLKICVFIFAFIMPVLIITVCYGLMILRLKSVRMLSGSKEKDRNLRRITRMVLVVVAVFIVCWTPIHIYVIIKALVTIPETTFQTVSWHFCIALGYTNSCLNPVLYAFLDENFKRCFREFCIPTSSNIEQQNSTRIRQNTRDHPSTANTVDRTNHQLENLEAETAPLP
T1 sequence (P32238 whole entry): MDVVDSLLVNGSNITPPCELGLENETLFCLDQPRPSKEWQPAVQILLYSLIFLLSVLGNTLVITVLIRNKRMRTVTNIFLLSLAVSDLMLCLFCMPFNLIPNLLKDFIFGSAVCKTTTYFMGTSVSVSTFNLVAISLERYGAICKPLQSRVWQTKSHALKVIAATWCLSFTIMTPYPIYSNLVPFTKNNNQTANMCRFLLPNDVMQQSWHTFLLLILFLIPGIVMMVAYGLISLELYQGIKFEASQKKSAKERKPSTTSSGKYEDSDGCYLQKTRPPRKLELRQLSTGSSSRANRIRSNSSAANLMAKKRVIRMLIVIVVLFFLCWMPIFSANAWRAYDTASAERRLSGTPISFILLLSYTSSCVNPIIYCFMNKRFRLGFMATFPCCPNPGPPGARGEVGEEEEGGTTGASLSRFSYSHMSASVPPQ

COCCOCCO[C@@H]1[C@@H](OP(=O)(O)O)[C@H](OCCOCCOC)[C@@H](OP(=O)(O)O)[C@@H](OP(=O)(O)O)[C@H]1OP(=O)(O)O [(OEG2)2-IP4, 4,6-Di-O-(methoxy-diethyleneglycol)-myo-inositol-1,2,3,5-tetrakis(phosphate)]
fold higher concentration necessary in CPP-induced vs CaP-induced VSMC calcification assay (primary human VSMCs): roughly 10 fold | VSMC calcium deposition, % of CPP2 control (primary human VSMCs; 1 µM, 48 h, replicates Fig. 3e): 88.4113% and 80.5453% and 68.3456% and 69.0785% | VSMC calcium deposition, % of CPP2 control (primary human VSMCs; 3 µM, 48 h): 92.4907% and 73.6279% and 53.9051% and 56.3804% | concentration at which decrease of CPP2-induced calcification became significant (primary human VSMCs; 48 h): 10 µM | inhibition at 10 µM [1]: 6% | inhibition at 10 µM (Opiate μ (OP3, MOP)): 11%

O=P(O)(O)O[C@H]1[C@H](OP(=O)(O)O)[C@@H](OP(=O)(O)O)[C@H](OP(=O)(O)O)[C@@H](OP(=O)(O)O)[C@H]1OP(=O)(O)O [IP6, myo-Inositol hexakisphosphate]
VSMC calcium deposition, % of CPP2 control (primary human VSMCs; 1 µM, 48 h, replicates Fig. 3e): 77.8896% and 82.8838% and 86.0538% and 91.73% | VSMC calcium deposition, % of CPP2 control (primary human VSMCs; 3 µM, 48 h): 95.5105% and 90.2183% and 79.3785% and 87.2842% | VSMC calcium deposition, % of CPP2 control (primary human VSMCs; 10 µM, 48 h): 37.8415% | VSMC calcium deposition, % of CPP2 control (primary human VSMCs; 30 µM, 48 h): 57.6847% and 47.1535% and 71.7458% and 75.8811% | VSMC calcium deposition, % of CPP2 control (primary human VSMCs; 100 µM, 48 h): 79.2544% and 65.4345% and 85.4719%
